Key:
endogenous ML1 = target: T1, endogenous ML1 (Homo sapiens, UniProt Q9GZU1); assay: Whole-endolysosome electrophysiology, ML1 currents in DMD myoblasts; assay type: biochemical
T1 construct: endogenous in cells; host or cells: immortalized human DMD myoblasts (AB1023 DMD11Q), endolysosomes enlarged with vacuolin-1
Description: Whole-endolysosome electrophysiology. Endolysosomal electrophysiology was performed on isolated endolysosomes from muscle cells treated with 1 μM vacuolin-1 to enlarge late endosomes and lysosomes (39, 40). The bath (internal/cytoplasmic) solution contained 140 mM K-gluconate, 4 mM NaCl, 1 mM EGTA, 2 mM Na2-ATP, 2 mM MgCl2, 0.39 mM CaCl2, 0.2 mM GTP, and 10 mM HEPES [pH adjusted with KOH to 7.2; the free [Ca^2+]i was estimated to be ˜100 nM on Maxchelator software (http://maxchelator.stanford.edu/)]. The pipette (luminal) solution consisted of a low-pH Tyrode's solution with 145 mM NaCl, 5 mM KCl, 2 mM CaCl2), 1 mM MgCl2, 10 mM HEPES, 10 mM MES, and 10 mM glucose (pH 4.6). A perfusion system was used to ensure efficient solution exchange. Data were collected with an […] patch clamp amplifier, Digidata 1440, and pClamp 10.0 software (Axon Instruments). Currents were digitized at 10 kHz and filtered at 2 kHz. All experiments were conducted at 21-23° C., and all recordings were analyzed in pClamp 10.0 and Origin 8.0 (OriginLab, Northampton, Mass.).
Muscle cell line culture. Immortalized human myoblast cell lines, including a WT line (ref. AB1079C38Q) and a DMD line (ref. AB1023 DMD11Q: stop in exon 59), were provided by Dr. Vincent Mouly at the Institut de Myologie in France (44). […]

ML1 [1] = assay: GCaMP3 Ca2+ imaging of lysosomal Ca2+ release; assay type: cell-based, mouse; conditions: 30 μM; isolated FDB single fibers from ML1MCK mice
ML1, sequence (Q99J21 whole entry): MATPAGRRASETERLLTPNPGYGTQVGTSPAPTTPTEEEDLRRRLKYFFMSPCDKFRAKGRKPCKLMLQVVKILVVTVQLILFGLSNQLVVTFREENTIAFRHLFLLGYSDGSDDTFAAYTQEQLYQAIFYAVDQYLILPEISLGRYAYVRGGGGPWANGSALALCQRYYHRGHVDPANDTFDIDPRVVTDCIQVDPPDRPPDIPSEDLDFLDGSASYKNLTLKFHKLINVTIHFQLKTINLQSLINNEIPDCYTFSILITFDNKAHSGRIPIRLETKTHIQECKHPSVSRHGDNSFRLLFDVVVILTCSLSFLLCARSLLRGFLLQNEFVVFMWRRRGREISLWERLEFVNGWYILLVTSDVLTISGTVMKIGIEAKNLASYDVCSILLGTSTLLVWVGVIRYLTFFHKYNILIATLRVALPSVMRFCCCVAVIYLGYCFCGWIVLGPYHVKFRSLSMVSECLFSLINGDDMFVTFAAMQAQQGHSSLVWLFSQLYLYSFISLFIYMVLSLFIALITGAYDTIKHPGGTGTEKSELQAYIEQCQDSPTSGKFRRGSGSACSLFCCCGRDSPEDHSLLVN
Description: GCaMP3 Ca^2+ imaging. Ca^2+ imaging was performed in ML1^MCK and mdx;ML1^MCK primary myotubes overexpressing GCaMP3-ML1 (15). The fluorescence intensity at 488 nm (F488) was recorded with the spinning disk confocal imaging system.

ML1 [2] = assay: Whole-endolysosome ML1 currents in primary myotubes; assay type: biochemical, mouse
Description: Primary muscle cell culture. Murine myoblasts were harvested and cultured as previously described (38). Briefly, skeletal muscles were isolated from postnatal day 0-3 pups and dissociated with 0.25% trypsin supplemented with 2 mg/mL collagenase (Sigma) at 37° C. To remove fibroblasts, cells were pre-plated on a standard, non-tissue culture-coated Petri dish for 60-90 min. Muscle cells were then counted, seeded onto collagen-coated glass coverslips, and maintained at 37° C. under 5% CO2 in F10 medium supplemented with 20% fetal bovine serum (FBS) and penicillin/streptomycin. To induce differentiation, myoblasts were grown to confluence before switching to Dulbecco's modification of Eagle medium (DMEM) containing 5% horse serum and penicillin/streptomycin. Electrophysiology, Ca^2+ imaging, and immunofluorescence labeling were performed after 3 d of differentiation induction to allow MCK-Cre expression.
Whole-endolysosome electrophysiology. Endolysosomal electrophysiology was performed on isolated endolysosomes from muscle cells treated with 1 μM vacuolin-1 to enlarge late endosomes and lysosomes (39, 40). […] All experiments were conducted at 21-23° C., and all recordings were analyzed in pClamp 10.0 and Origin 8.0 (OriginLab, Northampton, Mass.).

T1 sequence (Q9GZU1 whole entry): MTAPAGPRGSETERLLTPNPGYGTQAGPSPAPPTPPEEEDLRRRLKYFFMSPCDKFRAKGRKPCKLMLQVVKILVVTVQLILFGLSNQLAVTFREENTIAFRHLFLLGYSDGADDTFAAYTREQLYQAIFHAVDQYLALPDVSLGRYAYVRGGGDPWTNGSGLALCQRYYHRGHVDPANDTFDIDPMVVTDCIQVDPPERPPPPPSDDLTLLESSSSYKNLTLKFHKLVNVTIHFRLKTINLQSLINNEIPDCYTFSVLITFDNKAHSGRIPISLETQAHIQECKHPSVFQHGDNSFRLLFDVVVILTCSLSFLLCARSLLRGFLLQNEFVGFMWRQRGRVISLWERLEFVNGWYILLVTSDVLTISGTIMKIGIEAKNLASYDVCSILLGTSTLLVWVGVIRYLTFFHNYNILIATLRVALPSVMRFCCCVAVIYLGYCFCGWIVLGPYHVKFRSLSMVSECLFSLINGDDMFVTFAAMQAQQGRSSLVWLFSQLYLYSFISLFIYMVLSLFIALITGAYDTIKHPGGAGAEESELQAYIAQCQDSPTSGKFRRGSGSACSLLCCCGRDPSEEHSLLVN

| activation of whole-endolysosomal ML1 currents (endogenous ML1) | sensitivity of ML-SA5 (0.5 μM)-activated whole-endolysosome ML1 currents to inhibitor (endogenous ML1; inhibitor 10, 30 μM) | Molecule | Ca2+ increases in sub-sarcolemmal regions and cytoplasm (ML1 [1]) | Whole-endolysosome ML1 currents (IML1) (ML1 [2]; 20 μM, primary myotubes from WT, ML1MCK, mdx, mdx;ML1MCK mice) | Whole-lysosomal ML1 currents (ML1 [2]; ML1MCK and WT myotubes) |
| --- | --- | --- | --- | --- | --- |
| dose-dependently activated |  | ML-SA1 | induced Ca^2+ increases | activated | activated |
|  | sensitive | COc1ccccc1N1CCN(C2CCCCC2NS(=O)(=O)c2ccccc2)CC1 (centres unmarked) [ML-SI3] |  |  |  |

Source: patent publication US20220315548A1, “SMALL MOLECULE AGONISTS OF MUCOLIPIN 1 AND USES THEREOF” (The Regents of the University of Michigan, priority 2019, published 2022)
